Results: patent publication US7897582B2, “Oligonucleotide compositions and methods for the modulation of the expression of B7 protein” (Isis Pharmaceuticals, Inc., priority 2003, dated 2011)
Strand notation (5' to 3'): a small letter for the sugar, then the base; units joined by * are phosphorothioate-linked, units joined directly phosphodiester-linked; [ ] holds rarer units or linkages, { } end groups; capitals alone tell only the bases. d = 2'-deoxy (DNA)

Tests used:
human B7-2 = test: Cell surface expression of B7-2 in transfected COS-7 cells by flow cytometry; type: cell-based; design: % Control Protein: concentration or dose not given beside the values; details: for % Control Protein: hB7-2 protein, flow cytometry, Table 5; for activity in the B7-2 protein expression assay: ISIS 10373 deletion derivatives, FIG. 4
Description: A T-175 flask was seeded at 75% confluency with COS-7 cells (ATCC accession No. CRL 1651). The plasmid pcB7-1 was introduced into cells by standard calcium phosphate transfection. Following a 4 hour transfection, the cells were trypsinized and seeded in 12-well dishes at 80% confluency. The cells were allowed to adhere to the plastic for 1 hour and were then washed with phosphate-buffered saline (PBS). OptiMEM™ (GIBCO-BRL, Gaithersburg, Md.) medium was added along with 15 μg/mL of Lipofectin™ (GIBCO-BRL, Gaithersburg, Md.) and oligonucleotide at the indicated concentrations. After four additional hours, the cells were washed with phosphate buffered saline (PBS) and incubated with fresh oligonucleotide at the same concentration in DMEM (Dulbecco et al., Virol., 1959, 8, 396; Smith et al., Virol., 1960, 12, 185) with 10% fetal calf sera (FCS).
In order to monitor the effects of oligonucleotides on cell surface expression of B7-1, treated COS-7 cells were harvested by brief trypsinization 24-48 hours after oligonucleotide treatment. The cells were washed with PBS, then resuspended in 100 μL of staining buffer (PBS, 0.2% BSA, 0.1% azide) with 5 μL conjugated anti-B7-1-antibody (i.e., anti-hCD80-FITC, Ancell, Bayport, Minn.; FITC: fluorescein isothiocyanate). The cells were stained for 30 minutes at 4° C., washed with PBS, resuspended in 300 μL containing 0.5% paraformaldehyde. Cells were harvested and the fluorescence profiles were determined using a flow cytometer.
In an initial screen, the ability of hB7-2 oligonucleotides to inhibit B7-2 expression was evaluated by measuring the cell surface expression of B7-2 in transfected COS-7 cells by flow cytometry. The methods used were similar to those given in Example 2, with the exceptions that (1) COS-7 cells were transfected with the plasmids pbcB7-2 or BBG-58, a human ICAM-1 (CD54) expression vector (R&D Systems, Minneapolis, Minn.) introduced into cells by standard calcium phosphate transfection, (2) the oligonucleotides used were those described in Table 2, and (3) a conjugated anti-B7-2 antibody (i.e., anti-hCD86-FITC or anti-CD86-PE, PharMingen, San Diego, Calif.; PE: phycoerythrin) was used during flow cytometry.
B7 antisense oligonucleotides were tested for their effect on cell surface expression of both B7-1 and B7-2. Cell surface expression was measured as described in Example 1. Experiments were done for both human B7 and mouse B7.
The oligonucleotides were screened as described in Example 2 except that the concentration of oligonucleotide was varied as shown in Table 19.

hB7-2 mRNA = test: Ribonuclease protection assay of hB7-2 mRNA in transfected COS-7 cells; type: cell-based, human; design: % Control RNA Expression: concentration or dose not given beside the values; details: hB7-2 mRNA; Table 5
Description: For ribonuclease protection assays, cells were harvested 18 hours after completion of oligonucleotide treatment using a Totally RNA™ kit (Ambion, Austin, Tex.). The probes for the assay were generated from plasmids pcB7-2 (linearized by digestion with Bgl II) and pTRI-b-actin (Ambion Inc., Austin, Tex.). In vitro transcription of the linearized plasmid from the SP6 promoter was performed in the presence of α-^32P-UTP (800 Ci/mmole) yielding an antisense RNA complementary to the 3′ end of B7-2 (position 1044-1391). The probe was gel-purified after treatment with DNase I to remove DNA template. Ribonuclease protection assays were carried out using an RPA II™ kit (Ambion) according to the manufacturer's directions. Total RNA (5 μg) was hybridized overnight, at 42° C., with 10^5 cpm of the B7-2 probe or a control beta-actin probe. The hybridization reaction was then treated, at 37° C. for 30 minutes, with 0.4 units of RNase A and 2 units of RNase T1. Protected RNA was precipitated, resuspended in 10 μL of gel loading buffer and electrophoresed on a 6% acrylamide gel with 50% w/v urea at 20 W. The gel was then exposed and the lanes quantitated using a PhosphorImager (Molecular Dynamics, Sunnyvale, Calif.) essentially according to the manufacturer's instructions.
The oligonucleotides were screened as described in Example 4 except that the concentration of oligonucleotide was varied as shown in Table 13. Mismatch control oligonucleotides were included.

Substance | % Control Protein (human B7-2) [%] | % Control RNA Expression (hB7-2 mRNA) [%] | other results
9133 (antisense dT*dT*dC*dC*dA*dG*dG*dT*dC*dA*dT*dG*dA*dG*dC*dC*dA*dT*dT*dA) [compound 9133] | 70.2 | 46.0 | –
9134 (antisense dC*dA*dT*dA*dA*dG*dG*dT*dG*dT*dG*dC*dT*dC*dT*dG*dA*dA*dG*dT*dG) [compound 9134] | 88.8 | 94.5 | –
9135 (antisense dT*dT*dA*dC*dT*dC*dA*dT*dG*dG*dT*dA*dA*dT*dG*dT*dC*dT*dT*dT) [compound 9135] | 98.2 | 83.4 | –
9136 (antisense dA*dT*dT*dA*dA*dA*dA*dA*dC*dA*dT*dG*dT*dA*dT*dC*dA*dC*dT*dT) [compound 9136] | 97.1 | 103.1 | –
9137 (antisense dG*dG*dA*dA*dC*dA*dC*dA*dG*dA*dA*dG*dC*dA*dA*dG*dG*dT*dG*dG*dT) [compound 9137] | 80.5 | 78.1 | –
9138 (antisense dC*dC*dG*dT*dA*dC*dC*dT*dC*dC*dT*dA*dA*dG*dG*dC*dT*dC*dC*dT) [compound 9138] | 86.4 | 65.9 | –
9139 (antisense dC*dC*dC*dA*dT*dA*dG*dT*dG*dC*dT*dG*dT*dC*dA*dC*dA*dA*dA*dT) [compound 9139] | 47.9 | 32.6 | –
10367 (antisense dG*dC*dA*dC*dA*dG*dC*dA*dG*dC*dA*dT*dT*dC*dC*dC*dA*dA*dG*dG) [compound 10367] | 71.3 | 52.5 | –
10368 (antisense dT*dT*dG*dC*dA*dA*dA*dT*dT*dG*dG*dC*dA*dT*dG*dG*dC*dA*dG*dG) [compound 10368] | 81.0 | 84.5 | –
10369 (antisense dT*dG*dG*dT*dA*dT*dG*dG*dG*dC*dT*dT*dT*dA*dC*dT*dC*dT*dT*dT) [compound 10369] | 71.3 | 81.5 | –
10370 (antisense dA*dA*dA*dA*dG*dG*dT*dT*dG*dC*dC*dC*dA*dG*dG*dA*dA*dC*dG*dG) [compound 10370] | 84.3 | 83.2 | –
ISIS 10716: scrambled # 9136; SEQ ID NO: 77 (antisense dA*dA*dA*dG*dT*dT*dA*dC*dA*dA*dC*dA*dT*dT*dA*dT*dA*dT*dC*dT) [reference compound] | – | – | inhibitory activity on B7-2 cell surface expression (human B7-2; 200 nM, FIG. 3): no inhibitory activity
ISIS 10991: # 10373 deletion derivative, 10-mer, 0015-0024; SEQ ID NO: 85 (antisense dC*dT*dC*dC*dC*dC*dG*dT*dA*dC) | – | – | activity in the B7-2 protein expression assay (human B7-2): little or no activity
ISIS 10992: # 10373 deletion derivative, 11-mer, 0015-0025; SEQ ID NO: 86 (antisense dG*dC*dT*dC*dC*dC*dC*dG*dT*dA*dC) | – | – | activity in the B7-2 protein expression assay (human B7-2): little or no activity
ISIS 10993: # 10373 deletion derivative, 12-mer, 0015-0026; SEQ ID NO: 87 (antisense dA*dG*dC*dT*dC*dC*dC*dC*dG*dT*dA*dC) | – | – | activity in the B7-2 protein expression assay (human B7-2): little or no activity
ISIS 10994: # 10373 deletion derivative, 13-mer, 0015-0027; SEQ ID NO: 88 (antisense dG*dA*dG*dC*dT*dC*dC*dC*dC*dG*dT*dA*dC) | – | – | activity in the B7-2 protein expression assay (human B7-2): little or no activity
ISIS 10995: # 10373 deletion derivative, 14-mer, 0015-0028; SEQ ID NO: 89 (antisense dC*dG*dA*dG*dC*dT*dC*dC*dC*dC*dG*dT*dA*dC) | – | – | activity in the B7-2 protein expression assay (human B7-2): little or no activity
ISIS 11539: fully 2′MO # 10996; SEQ ID NO: 90 (antisense GCGAGCTCCCCGTAC; all 2'-O-methyl, all phosphorothioate, T or U not given here) | – | – | B7-2 expression relative to untreated cells (human B7-2; 200 nM, protein expression assay, ISIS 10996 and 2′-O-methyl derivatives): not active at all
